Legend:
ΔF508-CFTR [1] = target: T1, ΔF508-CFTR (Homo sapiens, UniProt P13569, DEL508-508); test: Ussing measurements, hBEs homozygous for ΔF508; type: cell-based; conditions: compound at 10 uM and VX-809 at 3 uM, relative to VX-809 (3 uM); 24 h treatment
T1 construct: primary lung epithelial cells (hBEs) homozygous for the Cystic Fibrosis-causing ΔF508 mutation; endogenous in cells; host or cells: primary lung epithelial cells (hBEs) homozygous for ΔF508
Method: As discussed above, Ussing measurements can be used to measure CFTR activity. In this example, primary lung epithelial cells (hBEs) homozygous for the Cystic Fibrosis-causing ΔF508 mutation were differentiated for a minimum of 4 weeks in an air-liquid interface on SnapWell filter plates prior to the Ussing measurements. Cells were apically mucus-washed for 30 minutes prior to treatment with compounds. The basolateral media was removed and replaced with media containing the compound of interest diluted to its final concentration from DMSO stocks. Treated cells were incubated at 37° C. and 5% CO2 for 24 hours. […] The short-circuit current was measured in voltage clamp-mode (Vhold=0 mV), and the entire assay was conducted at a temperature of 36° C.-36.5° C. Once the voltages stabilized, the chambers were clamped, and data was recorded by pulse readings every 5 seconds. Following baseline current stabilization, the following additions were applied and the changes in current and resistance of the cells was monitored: • 1. […]
The inhibitable current (that current that is blocked by CFTRinh-172) is measured as the specific activity of the ΔF508-CFTR channel, and increases in response to compound in this activity over that observed in vehicle-treated samples are identified as the correction of ΔF508-CFTR function imparted by the compound tested. […]

ΔF508-CFTR [2] = target: T1, ΔF508-CFTR; test: hBE equivalent current (Ieq) assay, primary lung epithelial cells homozygous for ΔF508; type: cell-based; conditions: compound at 10 uM and VX-809 at 1 uM, relative to VX-809 (1 uM); 24 h treatment
Method: Primary lung epithelial cells homozygous for the Cystic Fibrosis-causing ΔF508 mutation were differentiated for a minimum of 4 weeks in an air-liquid interface on Costar 24 well HTS filter plates prior to the equivalent current (Ieq) measurements. Cells were apically mucus-washed for 30 minutes 24h prior to treatment with compounds. The basolateral media was removed and replaced with media containing the compound of interest diluted to its final concentration from DMSO stocks. Treated cells were incubated at 37° C. and 5% CO2 for 24 hours. At the end of the treatment period, the media was changed to the Ieq experimental solution for 30 minutes before the experiment and plates are maintained in a CO2-free incubator during this period. The plates containing the cells were then placed in pre-warmed heating blocks at 36° C.±0.5 for 15 minutes before measurements are taken. The transepithelial voltage (VT) and conductance (GT) were measured using a custom 24 channel current clamp (TECC-24) with 24 well electrode manifold. The Ieq assay measurements were made following additions with standardized time periods: • 1. The baseline VT and GT values were measured for approximately 20 minutes. • 2. Benzamil was added to block ENaC for 15 minutes. • 3. Forskolin plus VX-770 (ivacaftor) were added to maximally activate ΔF508-CFTR for 27 minutes. • 4. Bumetanide was added to inhibit the NaK2Cl cotransporter and shut-off secretion of chloride.
The activity data captured was the area under the curve (AUC) for the traces of the equivalent chloride current. The AUC was collected from the time of the forskolin/VX-770 addition until the inhibition by bumetanide addition. Correction in response to compound treatment was scored as the increase in the AUC for compound-treated samples over that of vehicle-treated samples.
The results are shown below in Table 2. ++ indicates activity ≥25% run at 10 uM of VX-809 at 1 uM, + indicates activity 10 to <25% run at 10 uM of VX-809 at 1 uM, ** indicates activity ≥200% of VX-809 (1 uM) with compound at 10 uM and VX-809 at 1 uM; * indicates activity 100-200% of VX-809 (1 uM) with compound at 10 uM and VX-809 at 1 uM. ^## indicates activity ≥200% of VX-809 (3 uM) with compound at 10 uM and VX-809 at 3 uM; ^# indicates activity 100-200% of VX-809 (3 uM) with compound at 10 uM and VX-809 at 3 uM.

[3] = system: CFTR in G551D/F508del HBEs; test: Ussing measurements, G551D/F508del HBEs; type: cell-based, human; conditions: Ussing; Compound A 10 uM, ivacaftor 1 uM
Method: (§1) As discussed above, Ussing measurements was used to measure CFTR activity. In this method, primary lung epithelial cells (hBEs) with a Cystic Fibrosis-causing class III mutation were differentiated for a minimum of 4 weeks in an air-liquid interface on SnapWell™ filter plates prior to the Ussing measurements. Cells were apically mucus-washed for 30 minutes prior to treatment with compounds. The basolateral media was removed and replaced with media containing the compound of interest diluted to its final concentration from DMSO stocks. Treated cells were incubated at 37° C. and 5% CO2 for 24 hours. At the end of the treatment period, the cells on filters were transferred to the Ussing chamber and equilibrated for 30 minutes. The short-circuit current was measured in voltage clamp-mode (Vhold=0 mV), and the entire assay was conducted at a temperature of 36° C.-36.5° C. Once the voltages stabilized, the chambers were clamped, and data was recorded by pulse readings every 5 seconds. Following baseline current stabilization, the following additions were applied and the changes in current and resistance of the cells was monitored: • 1. Benzamil to the apical chamber to inhibit ENaC sodium channel. • 2. Forskolin to both chambers to activate ΔF508-CFTR by phosphorylation. • 3. Ivacaftor or Genistein to the apical chamber to potentiate ΔF508-CFTR channel opening. • 4. CFTRinh-172 to the apical chamber to inhibit ΔF508-CFTR Cl-conductance.
(§2) The forskolin-sensitive current and inhibitable current (that potentiated current that is blocked by CFTRinh-172) were measured as the specific activity of the ΔF508-CFTR channel, and increase in response to compound in this activity over that observed in vehicle-treated samples were identified as the correction of ΔF508-CFTR function imparted by the compound tested.
(§3) The results are shown below in Tables 5 and 6. Compound A is 10 uM and VX-809 is 3 uM and ivacaftor is 1 uM.

[4] = system: CFTR in R117H/F508del HBEs; test: Ussing measurements, R117H/F508del HBEs; type: cell-based, human; conditions: Ussing; Compound A 10 uM, ivacaftor 1 uM
Method: as §1, §2, §3

T1 sequence (P13569 with tags, fused parts or gaps DEL508-508): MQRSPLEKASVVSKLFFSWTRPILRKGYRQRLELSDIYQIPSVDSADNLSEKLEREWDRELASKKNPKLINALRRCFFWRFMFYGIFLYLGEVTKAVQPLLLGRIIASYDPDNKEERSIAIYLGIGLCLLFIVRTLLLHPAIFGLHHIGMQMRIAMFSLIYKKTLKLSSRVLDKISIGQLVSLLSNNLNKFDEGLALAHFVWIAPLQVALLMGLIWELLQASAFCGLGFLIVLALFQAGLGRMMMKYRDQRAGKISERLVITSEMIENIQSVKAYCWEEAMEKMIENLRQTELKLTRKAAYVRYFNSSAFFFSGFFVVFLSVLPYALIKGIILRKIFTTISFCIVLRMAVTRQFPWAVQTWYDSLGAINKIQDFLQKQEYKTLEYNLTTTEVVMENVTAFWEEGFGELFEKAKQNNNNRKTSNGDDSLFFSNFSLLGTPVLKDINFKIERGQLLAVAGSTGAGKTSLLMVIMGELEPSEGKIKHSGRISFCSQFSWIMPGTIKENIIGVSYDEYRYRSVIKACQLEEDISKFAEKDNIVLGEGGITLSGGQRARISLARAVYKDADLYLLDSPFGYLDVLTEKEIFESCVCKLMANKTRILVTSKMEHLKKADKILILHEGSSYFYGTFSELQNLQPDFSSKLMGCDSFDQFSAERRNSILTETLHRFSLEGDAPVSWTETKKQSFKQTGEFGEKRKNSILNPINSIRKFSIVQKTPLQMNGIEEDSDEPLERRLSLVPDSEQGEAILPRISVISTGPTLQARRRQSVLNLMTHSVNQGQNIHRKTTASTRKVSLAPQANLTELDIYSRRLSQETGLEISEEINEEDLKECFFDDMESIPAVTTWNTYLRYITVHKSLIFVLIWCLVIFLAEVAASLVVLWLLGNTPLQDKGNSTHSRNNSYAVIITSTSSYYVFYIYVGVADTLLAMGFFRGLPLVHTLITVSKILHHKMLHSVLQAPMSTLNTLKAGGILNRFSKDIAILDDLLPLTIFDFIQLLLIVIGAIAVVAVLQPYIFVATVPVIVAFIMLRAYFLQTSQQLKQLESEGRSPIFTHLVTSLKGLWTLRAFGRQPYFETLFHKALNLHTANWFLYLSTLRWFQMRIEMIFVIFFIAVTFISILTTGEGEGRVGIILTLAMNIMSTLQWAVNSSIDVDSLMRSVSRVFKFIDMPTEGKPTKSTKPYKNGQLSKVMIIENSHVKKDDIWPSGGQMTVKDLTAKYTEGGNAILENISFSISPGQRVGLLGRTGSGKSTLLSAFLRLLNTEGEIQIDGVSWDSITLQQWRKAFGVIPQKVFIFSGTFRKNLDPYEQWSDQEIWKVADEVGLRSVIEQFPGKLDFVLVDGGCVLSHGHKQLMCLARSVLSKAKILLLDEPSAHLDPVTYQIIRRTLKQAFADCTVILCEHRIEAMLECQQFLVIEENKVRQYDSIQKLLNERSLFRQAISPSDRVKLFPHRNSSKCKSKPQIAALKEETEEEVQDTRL

| Compound | leq: activity of compound with VX-809, % of VX-809 (AUC of equivalent chloride current) (ΔF508-CFTR [2]) | further results |
| --- | --- | --- |
| O=C(N[C@H]1C[C@H](n2nncc2CO)C1)c1cc(-c2ccccc2)no1 [Example 5, N-(trans-3-(5-(hydroxymethyl)-1H-1,2,3-triazol-1-yl)cyclobutyl)-3-phenylisoxazole-5-carboxamide] |  | Ussing: activity of compound with VX-809, % of VX-809 (ΔF508-CFTR [1]): ## (## indicates activity ≥200% of VX-809 (3 uM) with compound at 10 uM and VX-809 at 3 uM) |
| C[C@@H](O)c1nnc(CC2CC(NC(=O)c3cc(-c4ccccc4)no3)C2)s1 (stereo partly drawn) [Example 41, 3-Phenyl-N-[(1s,3s)-3-([5-[(1R)-1-hydroxyethyl]-1,3,4-thiadiazol-2-yl]methyl)cyclobutyl]-1,2-oxazole-5-carboxamide] | ** (** indicates activity ≥200% of VX-809 (1 uM) with compound at 10 uM and VX-809 at 1 uM) |  |
| C[C@@H](O)c1nnc(CC2CC(NC(=O)c3cc(-c4ccccc4)no3)C2)s1 (stereo partly drawn) [Example 42, 3-Phenyl-N-[(1r,3r)-3-([5-[(1R)-1-hydroxyethyl]-1,3,4-thiadiazol-2-yl]methyl)cyclobutyl]-1,2-oxazole-5-carboxamide] | * (* indicates activity 100-200% of VX-809 (1 uM) with compound at 10 uM and VX-809 at 1 uM) |  |
| C[C@@H](O)c1nnc(CC2CC(NC(=O)c3cc(-c4ccc(F)cc4)no3)C2)s1 (stereo partly drawn) [Example 43, 3-(4-Fluorophenyl)-N-[(1s,3s)-3-([5-[(1R)-1-hydroxyethyl]-1,3,4-thiadiazol-2-yl]methyl)cyclobutyl]-1,2-oxazole-5-carboxamide] | ** (** indicates activity ≥200% of VX-809 (1 uM) with compound at 10 uM and VX-809 at 1 uM) |  |
| C[C@@H](O)c1nnc(CC2CC(NC(=O)c3cc(-c4ccc(F)cc4)no3)C2)s1 (stereo partly drawn) [Example 44, 3-(4-Fluorophenyl)-N-[(1r,3r)-3-([5-[(1R)-1-hydroxyethyl]-1,3,4-thiadiazol-2-yl]methyl)cyclobutyl]-1,2-oxazole-5-carboxamide] | ** (** indicates activity ≥200% of VX-809 (1 uM) with compound at 10 uM and VX-809 at 1 uM) |  |
| C[C@@H](O)c1nnc(C[C@H]2C[C@@H](NC(=O)c3cc(-c4cccs4)no3)C2)o1 [Example 45, N-[(1s,3s)-3-([5-[(1R)-1-Hydroxyethyl]-1,3,4-oxadiazol-2-yl]methyl)cyclobutyl]-3-(thiophen-2-yl)-1,2-oxazole-5-carboxamide] | * (* indicates activity 100-200% of VX-809 (1 uM) with compound at 10 uM and VX-809 at 1 uM) |  |
| C[C@@H](O)c1nnc(C[C@H]2C[C@H](NC(=O)c3cc(-c4cccs4)no3)C2)o1 [Example 46, N-[(1r,3r)-3-([5-[(1R)-1-Hydroxyethyl]-1,3,4-oxadiazol-2-yl]methyl)cyclobutyl]-3-(thiophen-2-yl)-1,2-oxazole-5-carboxamide] | * (* indicates activity 100-200% of VX-809 (1 uM) with compound at 10 uM and VX-809 at 1 uM) |  |
| C[C@@H](O)c1nnc([C@H]2C[C@H](NC(=O)c3onc(-c4ccccc4)c3F)C2)o1 [Example 50, 4-Fluoro-3-phenyl-N-[(1r,3r)-3-[5-[(1R)-1-hydroxyethyl]-1,3,4-oxadiazol-2-yl]cyclobutyl]-1,2-oxazole-5-carboxamide] | * (* indicates activity 100-200% of VX-809 (1 uM) with compound at 10 uM and VX-809 at 1 uM) |  |
| C[C@H](O)c1cnnn1C[C@H]1C[C@@H](NC(=O)c2cc(-c3ccccc3)no2)C1 [Example 57, 3-Phenyl-N-[(1s,3s)-3-([5-[(1S)-1-hydroxyethyl]-1H-1,2,3-triazol-1-yl]methyl)cyclobutyl]-1,2-oxazole-5-carboxamide] | ** (** indicates activity ≥200% of VX-809 (1 uM) with compound at 10 uM and VX-809 at 1 uM) |  |
| C[C@H](O)c1cn(C[C@H]2C[C@@H](NC(=O)c3cc(-c4ccccc4)no3)C2)nn1 [Example 58, 3-Phenyl-N-[(1s,3s)-3-([4-[(1S)-1-hydroxyethyl]-1H-1,2,3-triazol-1-yl]methyl)cyclobutyl]-1,2-oxazole-5-carboxamide] | * (* indicates activity 100-200% of VX-809 (1 uM) with compound at 10 uM and VX-809 at 1 uM) |  |
| CC(C)(C)c1cc(C(C)(C)C)c(NC(=O)c2c[nH]c3ccccc3c2=O)cc1O [ivacaftor, reference compound] |  | Activity in G551D/F508del HBEs (relative to ivacaftor activity) [3]: 100%; Activity in R117H/F508del HBEs (relative to ivacaftor activity) [4]: 100% |

From US11083709B2, “Compounds, compositions, and methods of increasing CFTR activity” (Proteostasis Therapeutics, Inc., priority 2015, dated 2021)
